Source: US20250011329A1, “SUBSTITUTED PIPERIDINYL-METHYLPURINE PYRIDINES AND RELATED COMPOUNDS AND THEIR USE IN TREATING DISEASES AND CONDITIONS” (K36 Therapeutics, Inc., priority 2023, published 2025)

How the values were obtained:
recombinant human NSD2 = recombinant human NSD2 (Homo sapiens (Human), UniProt O96028); assay: NSD2 inhibitory assay (modified RBC HotSpot HMT Assay); format: biochemical; details: 2 nM NSD2, chicken oligonucleosomes 0.05 mg/ml, 3H-SAM 1 μM, 1 hour at 30° C.
Description: Exemplary compounds were tested for NSD2 inhibitory activity using a modified RBC HotSpot HMT Assay.
A reaction mixture was prepared by adding oligonucleosomes from Chicken (0.05 mg/ml) to freshly prepared reaction buffer containing 50 mM Tris-HCl (pH 8.5), 50 mM NaCl, 5 mM MgCl2, 0.01% Brij35, 1 mM DTT, and 1% DMSO followed by the addition of recombinant human NSD2, (amino acids 2-end) with N-terminal His tag (2 nM; GenBank Accession No. NM_001042424; MW=155.5 kDa; expressed in Sf9 insect cells) and gentle mixing. The test compounds were diluted in DMSO, added to the reaction mixture in nanoliter amounts by using Acoustic Technology (Echo 550, LabCyte Inc. Sunnyvale, CA) and incubated for 20 minutes at room temperature. The reaction was initiated by the addition of S-Adenosyl-L-[methyl-^3H]methionine (3H-SAM; 1 μM), and the mixture was incubated for 1 hour at 30° C. The reaction mixture was delivered to filter paper and the methylated substrate was quantified by scintillation counting. Data analysis was performed using Excel and GraphPad Prism software for IC50 curve fits. For additional information on the histone methyltransferase assay, see, for example, Horiuchi K Y, et al., “Assay Development for Histone Methyltransferases,” Assay Drug Dev Technol. 2013 May; 11(4):227-36.

recombinant human NSD1 = recombinant human NSD1 (Homo sapiens, UniProt Q96L73); assay: NSD1 inhibitory assay; format: biochemical; details: 2 nM NSD1, chicken oligonucleosomes 0.05 mg/ml, 3H-SAM 1 μM, 1 hour at 30° C.
Description: An exemplary compound was tested for NSD1 inhibitory activity.
A reaction mixture was prepared by adding oligonucleosomes from Chicken (0.05 mg/ml) to freshly prepared reaction buffer containing 50 mM Tris-HCl (pH 8.5), 50 mM NaCl, 5 mM MgCl2, 0.01% Brij35, 1 mM DTT, and 1% DMSO followed by the addition of recombinant human NSD1 (amino acids 2-end) with N-terminal His tag (2 nM) and gentle mixing. The test compounds were diluted in DMSO, added to the reaction mixture in nanoliter amounts by using Acoustic Technology (Echo 550, LabCyte Inc. Sunnyvale, CA) and incubated for 20 minutes at room temperature. The reaction was initiated by the addition of S-Adenosyl-L-[methyl-^3H] methionine (3H-SAM; 1 μM), and the mixture was incubated for 1 hour at 30° C. The reaction mixture was delivered to filter paper and the methylated substrate was quantified by scintillation counting. Data analysis was performed using Excel and GraphPad Prism software for IC50 curve fits. For additional information on the histone methyltransferase assay, see, for example, Horiuchi K Y, et al., “Assay Development for Histone Methyltransferases,” Assay Drug Dev Technol. 2013 May; 11(4):227-36.

Sequence of recombinant human NSD2 (O96028 2-1365 limits assumed): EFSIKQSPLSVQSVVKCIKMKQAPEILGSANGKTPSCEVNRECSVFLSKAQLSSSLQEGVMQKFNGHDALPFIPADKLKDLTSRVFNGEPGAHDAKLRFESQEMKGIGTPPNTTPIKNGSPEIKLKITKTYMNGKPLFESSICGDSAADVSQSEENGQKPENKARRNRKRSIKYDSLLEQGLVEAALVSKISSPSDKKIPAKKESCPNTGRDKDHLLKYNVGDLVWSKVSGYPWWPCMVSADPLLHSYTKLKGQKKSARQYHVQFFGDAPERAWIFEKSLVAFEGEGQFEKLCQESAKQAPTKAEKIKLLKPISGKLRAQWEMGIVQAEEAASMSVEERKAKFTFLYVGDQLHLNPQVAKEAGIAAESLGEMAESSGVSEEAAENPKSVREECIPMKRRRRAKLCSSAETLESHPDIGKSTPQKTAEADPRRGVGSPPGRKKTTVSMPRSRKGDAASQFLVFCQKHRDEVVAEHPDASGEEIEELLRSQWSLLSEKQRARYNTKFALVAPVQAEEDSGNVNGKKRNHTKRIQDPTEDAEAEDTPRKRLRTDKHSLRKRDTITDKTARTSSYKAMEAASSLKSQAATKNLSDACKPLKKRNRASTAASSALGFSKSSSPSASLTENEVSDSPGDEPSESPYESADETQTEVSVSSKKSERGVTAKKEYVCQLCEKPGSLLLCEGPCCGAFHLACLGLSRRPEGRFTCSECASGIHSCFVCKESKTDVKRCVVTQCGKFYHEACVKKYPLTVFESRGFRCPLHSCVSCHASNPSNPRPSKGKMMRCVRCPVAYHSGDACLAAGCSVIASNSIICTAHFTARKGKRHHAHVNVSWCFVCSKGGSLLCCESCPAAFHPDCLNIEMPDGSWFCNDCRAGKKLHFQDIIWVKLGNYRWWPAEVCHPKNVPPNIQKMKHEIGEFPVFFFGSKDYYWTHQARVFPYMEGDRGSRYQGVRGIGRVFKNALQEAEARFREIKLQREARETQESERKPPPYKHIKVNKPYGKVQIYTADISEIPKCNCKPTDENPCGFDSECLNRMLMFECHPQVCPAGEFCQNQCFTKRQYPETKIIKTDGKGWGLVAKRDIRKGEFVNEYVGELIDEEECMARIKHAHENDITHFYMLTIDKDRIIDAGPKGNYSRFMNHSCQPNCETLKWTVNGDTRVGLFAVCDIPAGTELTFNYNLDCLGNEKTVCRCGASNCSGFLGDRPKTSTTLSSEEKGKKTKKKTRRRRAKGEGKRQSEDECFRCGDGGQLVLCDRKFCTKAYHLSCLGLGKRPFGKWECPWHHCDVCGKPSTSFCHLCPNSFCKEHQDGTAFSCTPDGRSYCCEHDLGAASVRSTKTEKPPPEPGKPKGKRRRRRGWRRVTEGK

| IC50 (recombinant human NSD2) [nM] | IC50 (recombinant human NSD1) [nM] | Structure (SMILES) |
| --- | --- | --- |
| 2 to 20 |  | Nc1ncnc2c1ncn2Cc1cc(-c2cc(F)c(O)cc2F)ncc1N1CCC[C@](N)([C@H](O)C(F)F)C1 [Compound J, 4-(5-((R)-3-amino-3-((S)-2,2-difluoro-1-hydroxyethyl)piperidin-1-yl)-4-((6-amino-9H-purin-9-yl)methyl)pyridin-2-yl)-2,5-difluorophenol] |
| < 2 | < 1 | COC(=O)COc1cc(F)c(-c2cc(Cn3cnc4c(N)ncnc43)c(N3CCC[C@](N)([C@H](O)C(F)F)C3)cn2)cc1F [III-35, methyl 2-(4-(5-((R)-3-amino-3-((S)-2,2-difluoro-1-hydroxyethyl)piperidin-1-yl)-4-((6-amino-9H-purin-9-yl)methyl)pyridin-2-yl)-2,5-difluorophenoxy)acetate] |
